From patent US20240409878A1, “SYSTEM AND METHOD FOR PRESERVING ALGAE” (Macro Oceans Inc., priority 2023, published 2024)

Tested on: algae sample
Assay: preservation of an algae sample in a preserving solution
Set-up: species or system algae (e.g., sugar kelp, ribbon kelp, bull kelp, brown alga)
Conditions: for preservation of the algae by the preserving solution: for the target preserving duration; for critical preservation solution concentration: temperature excursions between 0° F. and 140° F., wet mass basis relative to algae mass
From the text: The critical preservation solution concentration can depend on the amount of time the algae sample is to be preserved for, a preservation temperature, an algae species (or other taxonomical rank such as phylum, class, order, family, genus, intermediate ranks therebetween associated with the algae), humidity, moisture content, wet mass content of the algae sample (e.g., composition of the wet mass of the algae sample), dry mass content of the algae sample (e.g., composition of the dry mass of the algae sample), and/or other suitable. […] However, other critical values can be determined and/or arrived at (e.g., by controlling temperature excursions particularly high temperature range, for different types of algae, using a mixture of preserving agents to reduce the concentration of any single preserving agent, based on the amount of time to preserve the algae, etc.).
Preserving the received algae sample S300 preferably functions to extend a lifetime of the algae sample without significant degradation of the algae sample and/or products thereof or derived therefrom. S300 can preserve an as received algae sample (e.g., from S100, fresh harvested algae sample, etc.), a processed algae sample (e.g., from S200, an algae sample that was received after one or more processing steps such as in S200 or S400 has been performed, etc.), a previously preserved algae sample (e.g., preserved according to S300, preserved in a manner different from S300, dried algae sample, etc.), and/or any suitable algae sample.
The algae sample is typically not agitated (e.g., mixed) during (e.g., throughout) preservation (e.g., to simplify the preservation process). Alternatively stated, the algae sample is preferably mixed at most only once (e.g., at the beginning of S300 to homogenize the preserving solution and algae sample) and remains unmixed thereafter. However, the algae sample can be agitated during preservation (e.g., according to a schedule, at predetermined times, at a predetermined frequency, etc.).
The algae sample is typically preserved at approximately room temperature (e.g., an ambient temperature of an environment the algae sample is stored at). For instance, the algae sample can be preserved at a temperature between about 50° F. to 110° F. However, the algae sample can be stored at an elevated temperature (e.g., >110° F.), at a refrigeration temperature (e.g., 30-50° F.), freezing temperature (e.g., <about 30° F.), and/or at any suitable temperature. In some variants, the preserved algae sample can undergo temperature excursions as cold as about 0° F. and as high as 140° F. However, additionally or alternatively, the temperature can be controlled to within a target temperature range (e.g., a preservation temperature, a preservation temperature excursion range, etc.).
The algae sample is typically not fully sealed during preservation (e.g., evaporation of solvent, preservative, etc. can occur such as because the sample is loosely covered). […] For example, the algae sample can be preserved in a container where a lid is placed on the container to close the container but where the lid need not form a seal (e.g., is not a hermetic lid).

Compound | preservation of the algae by the preserving solution (less than 0.5% benzoate (e.g., 0.1%)) | preservation duration before product degradation, mold growth, etc. was detected (5% alcohol solution, target about 1 year of preservation) | preservation of the algae by the preserving solution (less than 8% alcohol (e.g., 1%, 3%, 5%)) | critical preservation solution concentration (preserve for 2 months or less) | critical preservation solution concentration (preserve for 12 months or less) | preservation of the algae by the preserving solution (less than 9% carbonate (e.g., 5%))
benzoate | did not preserve the algae | – | – | – | – | –
CCO [alcohol] | – | about 2 months | did not preserve the algae | at least 5 wt % | at least 8 wt % | –
O=C([O-])[O-].[Na+].[Na+] [sodium carbonate] | – | – | – | ≥ 9 wt % | – | did not preserve the algae
